Measured values as given in patent US20250003959A1, “CELL ANALYSIS METHODS, COMPOSITIONS, AND USES” (Institute for Systems Biology, priority 2021, published 2025).

What was measured:
U87VIII cells [1] = assay: FA-N3 tolerance experiment (resazurin viability); conditions: FIG. 3E
Description: (§1) A 96-well plate was seeded with U87 cells (10,000/well), and the cells were allowed to grow overnight. Then the FA-N3 solution was added (100 μL per well, various concentrations) to the cells and incubated for 24 hours. After the incubation, the cell media was removed, and a resazurin solution (10 g/mL, in cell media) was added to the plate and incubated for 2 hours. The fluorescence was read by a plate reader (Biotek, 540 nm excitation/590 nm emission).

U87VIII cells [2] = assay: FA-N3 uptake experiment at the bulk level, dendrimer/BHQ2-N3 surface detection; format: cell-based, human
Description: The 3rd or 4th generation dendrimer was immobilized on the glass slide surface (described above). To generate a working curve of FA-N3, 45 μL of FA-N3 (various concentrations in 1×PBST) was added to each well. The slide was incubated at 37° C. for 2 hours, allowing FA-N3 to react with the DBCO groups on the dendrimer. The FA-N3 solution was then removed, and each well was washed with 1×PBST three times. 45 μL of BHQ2-N3 solution (25 μM in 1×PBST) was added to each well, and the slide/PDMS device was incubated at 37° C. for 1 hour, allowing BHQ2-N3 to react with unoccupied DBCO sites. After removing the BHQ2-N3 solution, and the device was washed with 1×PBST three times. The PDMS slab was then removed, and the slide was washed with 1×PBS, 50% 1×PBS/water, and water. The slide was then air-dried, and the fluorescence intensities were obtained using a Genepix microarray scanner. Experiments were run in quadruplets to get the error bar.
The U87 cells were collected via centrifugation at 500 g for 5 min. The media was removed, and the cells were resuspended in FBS-free DMEM, resulting in a 4 M cells/mL suspension. 250 μL of the cell suspension was dispensed into Eppendorf tubes, and mixed with 250 μL of the FA-N3 solution (various concentrations, in FBS free DMEM). After 30 min incubation in the cell incubator, the cells were centrifuged at 500 g for 5 min and the resulting pellet was washed 3 times to remove any excess FA-N3. Then, 100 μL cell lysis buffer was added to each tube, and kept on ice for 15 min. The tubes were then sonicated and vortexed for 5 min. Finally, the tubes were centrifuged at maximum speed for 10 min. The supernatant was collected and subjected to surface-based FA-N3 detection.
Because of their hydrophobic tails, fatty acids may insert into the cell membrane. This partition is not an active transportation process and may confound the analysis. On the other hand, it was expected that the inserted probe molecules would remain in the membrane fragments upon cell lysis and not be detected by the assay. To assess this potential interference, we incubated the cells with the FA-N3 probe at 4° C. and used our platform to quantify the FA-N3 in the cells. At such a low temperature, the cells would stop the active transportation of the probe, and any observed signal would originate from the nonspecific insertion into the cell membrane. […] To rule out the possibility that the low-temperature treatment dampened the rate of the nonspecific insertion, we performed another experiment where we fixed the cells and then incubated them with the FA-N3 probe at 37° C. Again, the resulted signal was negligible (FIG. 3G).

U87VIII cells [3] = test system: U87VIII cells
Description: as §1

U87VIII single cells = assay: Single-cell barcode chip (SCBC) FA-N3 uptake measurement; format: cell-based, human
Description: For SCBC measurements, the as-prepared single cells were resuspended in warm FBS-free media supplemented with 10 mM FA-N3 at 2 M cells/mL. After being incubated at 37° C. for 30 min and washed with FBS-free media 3 times, the collected cell pellet was resuspended in serum-free, biotin-free media. The concentration of the as-prepared single-cell suspension was 2 M cells/mL.
The SCBCs were fabricated according to well-established procedures (Xue et al (2015) J Am Chem Soc 137 (12): 4066-4069). DNA-encoded antibody library (DEAL) was grafted onto the surface through DNA hybridization to enable capture antibody arrays. The FA surface probe was also incorporated onto the surface barcode through the same procedure.
The SCBC devices were operated following previously established protocols (Xue et al (2015) J Am Chem Soc 137 (12): 4066-4069)). Briefly, FA-N3 detection was achieved by a surface-based competitive FRET assay, and protein detection was carried out by a sandwich immunofluorescence assay. The cells were loaded in the SCBC with FA-N3 first. Then each cell was isolated and lysed on each chamber. Upon cell lysing, FA-N3 and other analytes were released from the cell and captured on the surface. Subsequently, the detection cocktail containing BHQ2-N3 and antibodies were added to the chamber, and the fluorescence readout was recorded.
The dendrimer-ssDNA conjugate can be mixed with a cocktail of antibody-ssDNA conjugates to enable multiplex quantitation. As a proof of concept, we quantified the azidopentanoic acid uptake, critical signaling protein levels, and cell proliferation marker (Ki67) in U87VIII single cells. […] We further investigated if the FA-N3 uptake was dictated by the cell volume.

azidopentanoic acid [FA-N3]
concentration well tolerated by cells (U87VIII cells [1]): up to 20 mM
uptake signal after incubation at 4° C. (U87VIII cells [2]; U87VIII cells incubated with the probe at 4° C., vs control): indistinguishable from the control
FA-N3 concentration above which uptake signal leveled off (U87VIII cells [2]; U87VIII cells, bulk level): above 10 mM
cellular uptake of FA-N3 probe (U87VIII cells [2]; U87VIII cells, bulk level, 30 min incubation, varying FA-N3 concentrations): concentration-dependent manner
uptake signal in fixed cells (U87VIII cells [2]; fixed U87VIII cells incubated with the probe at 37° C.): negligible
tolerance of the probe by the cells (U87VIII cells [3]): well-tolerated
intracellular FA-N3 concentration (U87VIII single cells): high μM to low mM
fatty acid concentrations in the chambers (U87VIII single cells; calculated from the standard curve): high nM to low μM
FA-N3 amount taken up by each cell (U87VIII single cells; chamber volume 2 nL): low fmol-level
